Test results reported in PubChem BioAssay AID2060623 (Molecular Pharmacology Branch, DTP, NCI, 2025).

Test system: 227483-062-R1-J1-PDC complex spheroids with HUVEC/MSC, viability
Assay: Anticancer human tumor 227483-062-R1-J1-PDC patient-derived pancreatic carcinoma cell line growth inhibition [CLK]
Settings: for IC50: curve of first compound; for viability, T/C: stronger effect = lower value
Summary of the method: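 Patient-derived tumor cells grown as complex spheroids with HUVEC endothelial cells and mesenchymal stem cells, treated with drug combinations. Concentrations descend in half-log steps from near clinical Cmax, or from 10 microM if Cmax unknown.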

[1] = second compound 0.0316 µM, first compound 0.0316 µM
[2] = second compound 0.0316 µM, first compound 0.1 µM
[3] = second compound 0.0316 µM, first compound 0.316 µM
[4] = second compound 0.0316 µM, first compound 1 µM
[5] = second compound 0.0316 µM, first compound 3.16 µM
[6] = second compound 0.0316 µM, first compound 10 µM
[7] = second compound 0.1 µM, first compound 0.0316 µM
[8] = second compound 0.1 µM, first compound 0.1 µM
[9] = second compound 0.1 µM, first compound 0.316 µM
[10] = second compound 0.1 µM, first compound 1 µM
[11] = second compound 0.1 µM, first compound 3.16 µM
[12] = second compound 0.1 µM, first compound 10 µM
[13] = second compound 0.316 µM, first compound 0.0316 µM
[14] = second compound 0.316 µM, first compound 0.1 µM
[15] = second compound 0.316 µM, first compound 0.316 µM
[16] = second compound 0.316 µM, first compound 1 µM
[17] = second compound 0.316 µM, first compound 3.16 µM
[18] = second compound 0.316 µM, first compound 10 µM
[19] = second compound 1 µM, first compound 0.0316 µM
[20] = second compound 1 µM, first compound 0.1 µM
[21] = second compound 1 µM, first compound 0.316 µM
[22] = second compound 1 µM, first compound 1 µM
[23] = second compound 1 µM, first compound 3.16 µM
[24] = second compound 1 µM, first compound 10 µM
[25] = second compound 3.16 µM, first compound 0.0316 µM
[26] = second compound 3.16 µM, first compound 0.1 µM
[27] = second compound 3.16 µM, first compound 0.316 µM
[28] = second compound 3.16 µM, first compound 1 µM
[29] = second compound 3.16 µM, first compound 3.16 µM
[30] = second compound 3.16 µM, first compound 10 µM
[31] = second compound 10 µM, first compound 0.0316 µM
[32] = second compound 10 µM, first compound 0.1 µM
[33] = second compound 10 µM, first compound 0.316 µM
[34] = second compound 10 µM, first compound 1 µM
[35] = second compound 10 µM, first compound 3.16 µM
[36] = second compound 10 µM, first compound 10 µM
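Also: spheroids exposed to compounds for seven days before readout.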
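For viability, T/C in this document: percent of DMSO vehicle control luminescence as 100% viability.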

C#Cc1c(F)ccc2cc(O)cc(-c3ncc4c(N5CC6CCC(C5)N6)nc(OCC56CCCN5CC(F)C6)nc4c3F)c12 (stereo not drawn) + CN1CCN(c2cc(C(=O)Nc3cc4cc(-c5cnn(C)c5)ccc4cn3)ccn2)CC1
IC50 (second compound 0.0316 µM): > 10000 nM | IC50 (second compound 0.1 µM): > 10000 nM | IC50 (second compound 0.316 µM): < 31.6 nM | IC50 (second compound 1 µM): < 31.6 nM | IC50 (second compound 3.16 µM): < 31.6 nM | IC50 (second compound 10 µM): < 31.6 nM | viability, T/C [1]: 95.4% | viability, T/C [2]: 97% | viability, T/C [3]: 128% | viability, T/C [4]: 114% | viability, T/C [5]: 108% | viability, T/C [6]: 69.7% | viability, T/C [7]: 66.1% | viability, T/C [8]: 70.6% | viability, T/C [9]: 67.7% | viability, T/C [10]: 81.6% | viability, T/C [11]: 68.8% | viability, T/C [12]: 52.3% | viability, T/C [13]: 5.84% | viability, T/C [14]: 7.37% | viability, T/C [15]: 7.6% | viability, T/C [16]: 7.53% | viability, T/C [17]: 10% | viability, T/C [18]: 6.58% | viability, T/C [19]: 3.51% | viability, T/C [20]: 2.53% | viability, T/C [21]: 1.89% | viability, T/C [22]: 3.48% | viability, T/C [23]: 1.46% | viability, T/C [24]: 1.87% | viability, T/C [25]: 4.16% | viability, T/C [26]: 4.44% | viability, T/C [27]: 3.89% | viability, T/C [28]: 3.43% | viability, T/C [29]: 3.41% | viability, T/C [30]: 2.74% | viability, T/C [31]: 4.25% | viability, T/C [32]: 2.63% | viability, T/C [33]: 2.09% | viability, T/C [34]: 4% | viability, T/C [35]: 1.52% | viability, T/C [36]: 1.15%

CC(CO)NC(=O)c1cc(-c2ccc(Cl)cc2)nn(-c2cnn(C)c2)c1=O (stereo not drawn) + CN1CCN(c2cc(C(=O)Nc3cc4cc(-c5cnn(C)c5)ccc4cn3)ccn2)CC1
IC50 (second compound 0.0316 µM): > 10000 nM | IC50 (second compound 0.1 µM): > 10000 nM | IC50 (second compound 0.316 µM): < 31.6 nM | IC50 (second compound 1 µM): < 31.6 nM | IC50 (second compound 3.16 µM): < 31.6 nM | IC50 (second compound 10 µM): < 31.6 nM | viability, T/C [1]: 88.9% | viability, T/C [2]: 89.1% | viability, T/C [3]: 98.5% | viability, T/C [4]: 94% | viability, T/C [5]: 94.7% | viability, T/C [6]: 82.4% | viability, T/C [7]: 65.2% | viability, T/C [8]: 61.3% | viability, T/C [9]: 66.4% | viability, T/C [10]: 69% | viability, T/C [11]: 63.2% | viability, T/C [12]: 65.4% | viability, T/C [13]: 6.17% | viability, T/C [14]: 7.14% | viability, T/C [15]: 9.66% | viability, T/C [16]: 6.91% | viability, T/C [17]: 8.13% | viability, T/C [18]: 5.79% | viability, T/C [19]: 2.97% | viability, T/C [20]: 2.61% | viability, T/C [21]: 3.05% | viability, T/C [22]: 3.03% | viability, T/C [23]: 1.78% | viability, T/C [24]: 1.92% | viability, T/C [25]: 4.36% | viability, T/C [26]: 4.28% | viability, T/C [27]: 3.59% | viability, T/C [28]: 2.83% | viability, T/C [29]: 3.7% | viability, T/C [30]: 3.41% | viability, T/C [31]: 4.97% | viability, T/C [32]: 2.72% | viability, T/C [33]: 2.16% | viability, T/C [34]: 2.15% | viability, T/C [35]: 2.52% | viability, T/C [36]: 3%

CC(Nc1ccc2c(c1)OCCn1cc(N3C(=O)OCC3C(F)F)nc1-2)C(N)=O (stereo not drawn) + CN1CCN(c2cc(C(=O)Nc3cc4cc(-c5cnn(C)c5)ccc4cn3)ccn2)CC1
IC50 (second compound 0.0316 µM): > 10000 nM | IC50 (second compound 0.1 µM): 248 nM | IC50 (second compound 0.316 µM): < 31.6 nM | IC50 (second compound 1 µM): < 31.6 nM | IC50 (second compound 3.16 µM): < 31.6 nM | IC50 (second compound 10 µM): < 31.6 nM | viability, T/C [1]: 108% | viability, T/C [2]: 81.5% | viability, T/C [3]: 70% | viability, T/C [4]: 77.8% | viability, T/C [5]: 63% | viability, T/C [6]: 66.1% | viability, T/C [7]: 72.6% | viability, T/C [8]: 60.6% | viability, T/C [9]: 47.2% | viability, T/C [10]: 45.7% | viability, T/C [11]: 48.7% | viability, T/C [12]: 44.8% | viability, T/C [13]: 7.83% | viability, T/C [14]: 6.06% | viability, T/C [15]: 6.08% | viability, T/C [16]: 6.51% | viability, T/C [17]: 6.66% | viability, T/C [18]: 5.69% | viability, T/C [19]: 3.5% | viability, T/C [20]: 1.22% | viability, T/C [21]: 1.34% | viability, T/C [22]: 1.35% | viability, T/C [23]: 2.69% | viability, T/C [24]: 2.57% | viability, T/C [25]: 5.8% | viability, T/C [26]: 3.43% | viability, T/C [27]: 2.3% | viability, T/C [28]: 2.9% | viability, T/C [29]: 2.51% | viability, T/C [30]: 2.34% | viability, T/C [31]: 2.26% | viability, T/C [32]: 2.36% | viability, T/C [33]: 2.91% | viability, T/C [34]: 1.47% | viability, T/C [35]: 1.7% | viability, T/C [36]: 3.3%

COc1c(OCCCN2CCOCC2)ccc2c3n(c(=NC(=O)c4cnc(N)nc4)nc12)CCN3 + CN1CCN(c2cc(C(=O)Nc3cc4cc(-c5cnn(C)c5)ccc4cn3)ccn2)CC1
IC50 (second compound 0.0316 µM): 194 nM | IC50 (second compound 0.1 µM): 25 nM | IC50 (second compound 0.316 µM): < 3.16 nM | IC50 (second compound 1 µM): < 3.16 nM | IC50 (second compound 3.16 µM): < 3.16 nM | IC50 (second compound 10 µM): < 3.16 nM | viability, T/C (second compound 0.0316 µM, first compound 0.00316 µM): 114% | viability, T/C (second compound 0.0316 µM, first compound 0.01 µM): 96.6% | viability, T/C [1]: 74.2% | viability, T/C [2]: 60.9% | viability, T/C [3]: 43.3% | viability, T/C [4]: 27.8% | viability, T/C (second compound 0.1 µM, first compound 0.00316 µM): 60.1% | viability, T/C (second compound 0.1 µM, first compound 0.01 µM): 65% | viability, T/C [7]: 41% | viability, T/C [8]: 38.8% | viability, T/C [9]: 23.2% | viability, T/C [10]: 16.7% | viability, T/C (second compound 0.316 µM, first compound 0.00316 µM): 6.51% | viability, T/C (second compound 0.316 µM, first compound 0.01 µM): 6.64% | viability, T/C [13]: 5.96% | viability, T/C [14]: 6.61% | viability, T/C [15]: 5.11% | viability, T/C [16]: 4.05% | viability, T/C (second compound 1 µM, first compound 0.00316 µM): 3.87% | viability, T/C (second compound 1 µM, first compound 0.01 µM): 1.44% | viability, T/C [19]: 1.35% | viability, T/C [20]: 1.23% | viability, T/C [21]: 1.21% | viability, T/C [22]: 1.6% | viability, T/C (second compound 3.16 µM, first compound 0.00316 µM): 2.64% | viability, T/C (second compound 3.16 µM, first compound 0.01 µM): 2.53% | viability, T/C [25]: 2.97% | viability, T/C [26]: 1.79% | viability, T/C [27]: 1.84% | viability, T/C [28]: 1.94% | viability, T/C (second compound 10 µM, first compound 0.00316 µM): 3.49% | viability, T/C (second compound 10 µM, first compound 0.01 µM): 3.33% | viability, T/C [31]: 1.42% | viability, T/C [32]: 1.13% | viability, T/C [33]: 3.58% | viability, T/C [34]: 1.55%
